Experimental data as given in patent US20060235076A1, “Medicinal composition for treating infection with drug-resistant staphylococcus aureus” (priority 2003, published 2006).

Key:
MRSA = assay: Potentiating effect of galloyl quinic acid derivatives for the antibacterial activity of oxacillin (agar plate dilution method, MIC); format: cell-based, Staphylococcus aureus
Method: According to the agar plate dilution method defined by Japan Society of Chemotherapy, MIC (Minimum inhibitory concentration) was determined. CAMHA was prepared by adding 50 mg/l of Ca-ion, 25 mg/l of Mg-ion, and 2% of NaCl to Mueller-Hinton II Agar (MHA), and it was used as a medium for use in the measurement of sensitivity. The bacterial liquid was incubated at 37° C. overnight and diluted to 10^6 CFU/ml with saline.
It was confirmed that the known substances shown below were contained in “Tara” and their MICs were determined as described in example 2 with respect to the effects of the combination use with oxacillin

[1] = test system: MRSA COL and MRSA Strain No. 5; assay: Potentiating effect of various gallates for antibacterial activity of oxacillin (MIC by broth microdilution method and FIC); format: cell-based, Staphylococcus aureus; conditions: for FIC value: combination with oxacillin
Method: According to the broth microdilution method defined by Japan Society of Chemotherapy, MIC was determined. CAMHA was prepared by adding 50 mg/l of Ca-ion, 25 mg/l of Mg-ion, and 2% of NaCl to MHB (Mueller-Hinton Broth), and it was used as a medium for use in the measurement of sensitivity. In 96-well microplates 100 μl of the medium for use in the measurement of sensitivity containing drugs was dispensed. The bacterial liquid was incubated at 37° C. overnight, diluted with saline and added to the plate so that the final concentration of the bacteria was 5×10^5 CFU/well. […] FIC (fractional inhibitory concentration) was calculated from the result and the potency of the effect of the combination use was evaluated.

O=C(OC1CC(O)(C(=O)O)CC(O)C1OC(=O)c1cc(O)c(O)c(O)c1)c1cc(O)c(O)c(O)c1 (stereo not drawn) [compound 4]
Oxacillin MIC (MRSA; ATCC 6538, with 12.5 μg/ml of compound): <0.5 µg/mL | Oxacillin MIC (MRSA; ATCC 6538, with 25 μg/ml of compound): <0.5 µg/mL | Oxacillin MIC (MRSA; ATCC 6538, with 50 μg/ml of compound): <0.5 µg/mL | Oxacillin MIC (MRSA; MRSA 1, with 12.5 μg/ml of compound): >256 µg/mL | Oxacillin MIC (MRSA; MRSA 1, with 25 μg/ml of compound): >256 µg/mL | Oxacillin MIC (MRSA; MRSA 1, with 50 μg/ml of compound): >256 µg/mL | Oxacillin MIC (MRSA; MRSA 2, with 12.5 μg/ml of compound): >256 µg/mL | Oxacillin MIC (MRSA; MRSA 2, with 25 μg/ml of compound): 256 µg/mL | Oxacillin MIC (MRSA; MRSA 2, with 50 μg/ml of compound): 256 µg/mL | Oxacillin MIC (MRSA; MRSA 3, with 12.5 μg/ml of compound): 256 µg/mL | Oxacillin MIC (MRSA; MRSA 3, with 25 μg/ml of compound): 256 µg/mL | Oxacillin MIC (MRSA; MRSA 3, with 50 μg/ml of compound): 128 µg/mL | Oxacillin MIC (MRSA; MRSA 4, with 12.5 μg/ml of compound): >256 µg/mL | Oxacillin MIC (MRSA; MRSA 4, with 25 μg/ml of compound): >256 µg/mL | Oxacillin MIC (MRSA; MRSA 4, with 50 μg/ml of compound): >256 µg/mL | Oxacillin MIC (MRSA; MRSA 5, with 12.5 μg/ml of compound): >256 µg/mL | Oxacillin MIC (MRSA; MRSA 5, with 25 μg/ml of compound): ≅256 μg/ml | Oxacillin MIC (MRSA; MRSA 5, with 50 μg/ml of compound): >256 µg/mL | Oxacillin MIC (MRSA; MRSA 6, with 12.5 μg/ml of compound): 256 µg/mL | Oxacillin MIC (MRSA; MRSA 6, with 25 μg/ml of compound): 256 µg/mL | Oxacillin MIC (MRSA; MRSA 6, with 50 μg/ml of compound): 128 µg/mL | Oxacillin MIC (MRSA; MRSA 7, with 12.5 μg/ml of compound): >256 µg/mL | Oxacillin MIC (MRSA; MRSA 7, with 25 μg/ml of compound): >256 µg/mL | Oxacillin MIC (MRSA; MRSA 7, with 50 μg/ml of compound): >256 µg/mL | Oxacillin MIC (MRSA; MRSA 8, with 12.5 μg/ml of compound): 256 µg/mL | Oxacillin MIC (MRSA; MRSA 8, with 25 μg/ml of compound): 128 µg/mL | Oxacillin MIC (MRSA; MRSA 8, with 50 μg/ml of compound): 128 µg/mL | Oxacillin MIC (MRSA; MRSA 9, with 12.5 μg/ml of compound): >256 µg/mL | Oxacillin MIC (MRSA; MRSA 9, with 25 μg/ml of compound): >256 µg/mL | Oxacillin MIC (MRSA; MRSA 9, with 50 μg/ml of compound): >256 µg/mL | Oxacillin MIC (MRSA; MRSA 10, with 12.5 μg/ml of compound): 128 µg/mL | Oxacillin MIC (MRSA; MRSA 10, with 25 μg/ml of compound): 128 µg/mL | Oxacillin MIC (MRSA; MRSA 10, with 50 μg/ml of compound): 128 µg/mL | Oxacillin MIC (MRSA; MRSA 12, with 12.5 μg/ml of compound): >256 µg/mL | Oxacillin MIC (MRSA; MRSA 12, with 25 μg/ml of compound): >256 µg/mL | Oxacillin MIC (MRSA; MRSA 12, with 50 μg/ml of compound): >256 µg/mL | Oxacillin MIC (MRSA; MRSA 16, with 12.5 μg/ml of compound): >256 µg/mL | Oxacillin MIC (MRSA; MRSA 16, with 25 μg/ml of compound): >256 µg/mL | Oxacillin MIC (MRSA; MRSA 16, with 50 μg/ml of compound): >256 µg/mL | Oxacillin MIC (MRSA; MRSA 17, with 12.5 μg/ml of compound): 256 µg/mL | Oxacillin MIC (MRSA; MRSA 17, with 25 μg/ml of compound): 256 µg/mL | Oxacillin MIC (MRSA; MRSA 17, with 50 μg/ml of compound): 256 µg/mL | Oxacillin MIC (MRSA; MRSA 18, with 12.5 μg/ml of compound): >256 µg/mL | Oxacillin MIC (MRSA; MRSA 18, with 25 μg/ml of compound): >256 µg/mL | Oxacillin MIC (MRSA; MRSA 18, with 50 μg/ml of compound): >256 µg/mL | Oxacillin MIC (MRSA; MRSA 20, with 12.5 μg/ml of compound): 32 µg/mL | Oxacillin MIC (MRSA; MRSA 20, with 25 μg/ml of compound): 16 µg/mL | Oxacillin MIC (MRSA; MRSA 20, with 50 μg/ml of compound): 16 µg/mL | Oxacillin MIC (MRSA; MRSA 21, with 12.5 μg/ml of compound): 128 µg/mL | Oxacillin MIC (MRSA; MRSA 21, with 25 μg/ml of compound): 128 µg/mL | Oxacillin MIC (MRSA; MRSA 21, with 50 μg/ml of compound): 64 µg/mL | Oxacillin MIC (MRSA; MRSA 22, with 12.5 μg/ml of compound): 64 µg/mL | Oxacillin MIC (MRSA; MRSA 22, with 25 μg/ml of compound): 64 µg/mL | Oxacillin MIC (MRSA; MRSA 22, with 50 μg/ml of compound): 64 µg/mL | Oxacillin MIC (MRSA; MRSA COL, with 12.5 μg/ml of compound): >256 µg/mL | Oxacillin MIC (MRSA; MRSA COL, with 25 μg/ml of compound): >256 µg/mL | Oxacillin MIC (MRSA; MRSA COL, with 50 μg/ml of compound): >256 µg/mL | Oxacillin MIC (MRSA; MSSA 1003, with 12.5 μg/ml of compound): <0.5 µg/mL | Oxacillin MIC (MRSA; MSSA 1003, with 25 μg/ml of compound): <0.5 µg/mL | Oxacillin MIC (MRSA; MSSA 1003, with 50 μg/ml of compound): <0.5 µg/mL | Oxacillin MIC (MRSA; MSSA 1010, with 12.5 μg/ml of compound): <0.5 µg/mL | Oxacillin MIC (MRSA; MSSA 1010, with 25 μg/ml of compound): <0.5 µg/mL | Oxacillin MIC (MRSA; MSSA 1010, with 50 μg/ml of compound): <0.5 µg/mL | Oxacillin MIC (MRSA; MSSA 1032, with 12.5 μg/ml of compound): <0.5 µg/mL | Oxacillin MIC (MRSA; MSSA 1032, with 25 μg/ml of compound): <0.5 µg/mL | Oxacillin MIC (MRSA; MSSA 1032, with 50 μg/ml of compound): <0.5 µg/mL | Oxacillin MIC (MRSA; RN4220, with 12.5 μg/ml of compound): <0.5 µg/mL | Oxacillin MIC (MRSA; RN4220, with 25 μg/ml of compound): <0.5 µg/mL | Oxacillin MIC (MRSA; RN4220, with 50 μg/ml of compound): <0.5 µg/mL

catechin gallate
effect of the combination use with oxacillin by FIC values ([1]; COL Strain and Strain No. 5): most potent | FIC value ([1]; MRSA COL): <0.25 | FIC value ([1]; MRSA Strain No. 5): 0.064
